Assay results published in patent publication US20120328696A1, “ANTI-PARKINSONIAN COMPOUND ACETYLSALICYLIC ACID MALTOL ESTER” (Hutecs Korea Pharmaceutical Co., Ltd., priority 2008, published 2012).

Legend:
Format in all cases: in vivo
[1] = test system: GPx-1 (+/+)- and GPx-1 (−/−)-mice; assay: Rota-rod test after MA; conditions: MA 8 mg/kg i.p. x4, GPx-1 (+/+) and (−/−) mice
Procedure: (§1) The mice received four times of MA (8 mg/kg, ip) or saline as a 2 hr-time interval. Chemicals (AME, EBS, and PKC inhibitors) were administrated for 5 consecutive days (twice daily), and were given 2 times at 4 hr and 30 min before the first MA injection as shown in the experimental schedule. Animals were sacrificed at 4 hrs and 3 days after the final MA administration.
The apparatus (Ugo Basile model 7650, Comerio, VA, Italy) consisted of a base platform and a rotating rod with a nonslippery surface. The rod was placed at a height of 15 cm from the base. The rod, 30 cm in length, was divided into 5 equal sections by 6 opaque disks (so that the subjects cannot be distracted by one another) To assess motor performance, the mice first trained on the apparatus 2 minutes at a constant rate of 4 r.p.m. per 30 s prior to the test. The test was performed 30 minutes after training and an accelerating paradigm was applied, starting from a rate of 4 r.p.m. to a maximum speed of 40 r.p.m., then the rotation speed was kept constant at 40 r.p.m. for a maximum of 300 s. The duration for which the animal could maintain balance on the rotating drum was measured as the rotarod latency, with a maximal cut-off time of 300 s.

[2] = test system: F4/80 (a marker of microgliosis); assay: F4/80 expression after MA (western blot); conditions: p.o.; AME 50, EBS 20, rottlerin 20 mg/kg; MA 8 mg/kg i.p. x4; GPx-1 (+/+) and (−/−) mice
Procedure: as §1
The western blot assays was performed as described previously (Kim et al., 2003). Tissues were homogenized in lysis buffer, containing 200 mM Tris HCl (pH 6.8), 1% SDS, 5 mM EGTA (ethylene glycol tetraacetic acid), 5 mM EDTA (ethylenediaminetetraacetic acid), 10% glycerol, 1× phosphatase inhibitor cocktail I, 1× protease inhibitor cocktail. Lysate was centrifuged at 12,000×g for 30 min and supernatant fraction was used for Western blot analysis. Proteins (20-50 ug/lane) were separated by 6%, 8%, 10% or 15% sodium dodecyl sulfate-polyacrylamide gel electrophoresis and transferred onto the PVDF membranes. Following transfer, the membranes were preincubated with 5% non-fat milk and incubated overnight at 4° C. with primary antibody against β-actin (1:50000, Sigma, St. Louis, Mo., USA), TH (1:5000, Chemicon), TH phosphor-Ser 19 (1:1000, Chemicon,), TH phosphor-Ser 31 (1:500, Chemicon), TH phosphor-Ser 40 (1:500, Chemicon), F4/80 (1:500, Serotec), GPx1 (1:2500, AbFrontier), PKC (1:5000, Santa Cruz biotechnology, Santa Cruz, Calif., USA), p53 (1:5000, Cell signaling, Beverly, Mass., USA), MDM2 (1:1000, BD Pharmingen, San Jose, Calif., USA), MDM2 phospho-Ser 166 (1:1000, cell signaling), BDNF (1:500, Chemicon), GDNF (1:250, Santa Cruz), COX-2 (1:2000, Cayman, Ann Arbor, MC, USA), IL-6 (1:2000, Abcam, Cambridge, Mass., USA), TNF-a (1:1000, R&D Systems, Mckinley place NE, NM, USA), IFN-γ (1:500, Chemicon) or Iba-1 (1:500, Wako, Osaka, Japan). And then, membranes were incubated with HRP-conjugated secondary anti-rabbit IgG (1:1000, GE healthcare, Piscataway, N.J., USA), anti-mouse IgG (1:1000, Sigma) or anti-goat IgG (1:1000, Sigma) for 2 h. […]

[3] = test system: glutathione peroxidase (GPx)-1; assay: Striatal GPx-1-like immunoreactivity after MA; conditions: p.o.; AME 50, EBS 20, rottlerin 20 mg/kg; MA 8 mg/kg i.p. x4; GPx-1 (+/+) mice
Procedure: as §1
Animals were sacrificed at 4 hours and 3 days after the last MA injection. They were anesthetized with 60% urethane and perfused transcardially with 50 ml of 50 mM phosphate buffered saline (PBS), followed by 50 ml of a mixture of 4% paraformaldehyde in PBS. The rate of perfusion was 50 ml/min. The brains were removed, post-fixed at 4° C. for 24 h in the same fixative and then cryoprotected in 30% sucrose in PBS. The brains were cut on a horizontal sliding microstome into 40 μm transverse free-floading sections (Kim et al., 1999).
The immunocytochemistry was performed as described previously (Kim et al., 2000a, b). Briefly, prior to incubation with the primary antibodies, sections were preincubated with 0.3% hydrogen peroxide in PBS for 30 min (to block endogenous peroxidase activity), then in PBS containing 0.4% Triton X-100 for 20 min and 1% normal serum for 20 min. The sections were then incubated for 48 h at 4° C. in primary antibody against tyrosine hydroxylase (1:500, Chemicon, Termecula, Calif., USA), GPx1 (1:500, AbFrontier, Seoul, Korea), PKC (1:200, Santa Cruz biotechnology INC, CA, USA) or F4/80 (1:50, Serotec, Raleigh, N.C., USA). The sections were further incubated with secondary biotinylated antisera (1:1000 dilution; Vector, Brulingame, Calif.) for 1 hr, and immersed in avidin-biotin-peroxidase complex (ABC Elite kit, Vector) for 1 hr. Sections were always washed three times with PBS (pH 7.4) between each incubation step. 3,3′-diaminobenzidine (DAB) was used as a chromogen.
The western blot assays was performed as described previously (Kim et al., 2003). […]

[4] = test system: dopamine (DA), DOPAC, HVA; assay: Striatal DA, DOPAC and HVA after MA (HPLC); conditions: p.o.; AME 50, EBS 20, rottlerin 20 mg/kg; MA 8 mg/kg i.p. x4; GPx-1 (+/+) and (−/−) mice
Procedure: as §1
At 3 day after last MA injection, mice were killed by cervical dislocation and the brains were removed. Striatum was dissected and immediately frozen on dry ice, and stored at −70° C. until extraction. Striatum obtained from each animal was weighed, ultrasonicated in 10% perchloric acid containing 10 ng/mg of the internal standard dihydroxybenzylamine, and centrifuged at 20,000×g for 10 min. The levels of DA and its metabolites 3,4-dihydroxyphenylacetic acid (DOPAC) and homovanillic acid (HVA) in brain tissue extracts were determined by HPLC coupled with electrochemical detection as described (Kim et al., 1999). The 20 μl aliquot of the supernatant was injected into the HPLC equipped with a 3 μm C18 column. The mobile phase was comprised of 26 ml of acetonitrile, 21 ml of tetrahydrofuran and 960 ml of 0.15M monochloroacetic acid (pH 3.0) containing 50 mg/l of EDTA and 200 mg/l of sodium octyl sulfate. The amount of DA, DOPAC and HVA were determined by comparison of peak area of tissue sample with standard, and were expressed in nanograms per gram of wet tissue.

[5] = p.o., AME 25 or 50, EBS 10 or 20, rottlerin 10 or 20 mg/kg

Row | Structure (SMILES) | effect on MA-induced impairment in rota-rod performance [1, 5] | effect on MA-induced increase in F4/80 expression [2] | effect on MA-induced decrease in striatal GPx-1-IR [3] | effect on MA-induced change in DA turnover rate [4] | effect on MA-induced change in striatal DA level [4] | effect on MA-induced change in striatal DOPAC level [4] | effect on MA-induced change in striatal HVA level [4] | effect on MA-induced impairment in rota-rod performance ([1]; PKC inhibitors intra-striatal (chelerythrine 0.2 ug/head, rottlerin 3.0 ug/head significant))
1 | O=c1c2ccccc2[se]n1-c1ccccc1 [EBS, 2-phenyl-1,2-benzisoselenazol-3(2H)-one] | inhibited these effects in a dose-dependent manner | significantly and consistently attenuating effects | inhibited MA-induced decrease in the GPx-1-IR | significantly attenuated MA-induced dopaminergic impairment | significantly attenuated MA-induced dopaminergic impairment | significantly attenuated MA-induced dopaminergic impairment | significantly attenuated MA-induced dopaminergic impairment | 
2 | CC(=O)Oc1ccccc1C(=O)Oc1c(C)occc1=O [AME, 3-(2-methyl-4-pyronyl)-2-acetyloxybenzoate] | inhibited these effects in a dose-dependent manner | significantly and consistently attenuating effects | inhibited MA-induced decrease in the GPx-1-IR | significantly attenuated MA-induced dopaminergic impairment | significantly attenuated MA-induced dopaminergic impairment | significantly attenuated MA-induced dopaminergic impairment | significantly attenuated MA-induced dopaminergic impairment | 
3 | CC(=O)c1c(O)c(C)c(O)c(Cc2c(O)c3c(c(C(=O)/C=C/c4ccccc4)c2O)OC(C)(C)C=C3)c1O [rottlerin] | inhibited these effects in a dose-dependent manner | significantly and consistently attenuating effects | inhibited MA-induced decrease in the GPx-1-IR | significantly attenuated MA-induced dopaminergic impairment | significantly attenuated MA-induced dopaminergic impairment | significantly attenuated MA-induced dopaminergic impairment | significantly attenuated MA-induced dopaminergic impairment | attenuated the MA-behavioral impairments in a dose-dependent manner
